Consider 42 molecules from the Deep4Chem optical property database.

A short description of the data set: solvent given as SMILES.

In the case of `CCCCCCCCCCCCCCCCCCOC(=O)/C=C/C1=CC2=C(c3c(C)cc(C)cc3C)c3cccn3[B-](F)(F)[N+]2=C1`, the absorption maximum (in ClCCl) is recorded as 538 nm.

With `O=C(O)CCCCCn1/c(=C/C=C/C2=[N+](CCCCCC(=O)O)c3cccc4cccc2c34)c2cccc3cccc1c32`, the absorption maximum (in CO) turned out to be 760 nm.

Where the note is “in ClCCl”, `CN(C)c1ccc(C2=CC3=C(c4ccc(C=C(C#N)C#N)cc4)[C@H]4c5ccccc5[C@]3(S2)c2ccccc24)cc1` yielded an absorption maximum of 543 nm.

With `CCCCCCc1ccc(-c2ccc(-c3cc(-c4ccc(-c5ccc(CCCCCC)s5)s4)c4ccc5c(-c6ccc(-c7ccc(CCCCCC)s7)s6)cc(-c6ccc(-c7ccc(CCCCCC)s7)s6)c6ccc3c4c65)s2)s1`, the absorption maximum (in ClC(Cl)Cl) was determined as 451 nm.

Regarding `Oc1ccc(Br)cc1-c1nc2c(c3c1-c1ccccc1CC3)-c1ccccc1CC2`, the absorption maximum (in ClCCl) was found to be 345 nm.

Under “in CC#N”, `COc1cc2cc(C#Cc3ccc(/C=C(\C#N)C(=O)O)cc3)c(=O)oc2cc1OC` registered an absorption maximum of 398 nm.

Molecule `Cc1cc(O)c(C(=O)/C=C/c2ccc(Cl)cc2Cl)c(=O)o1` came in with an absorption maximum (in CC#N) of 349 nm and an absorption maximum (in ClCCl) of 350 nm.

Regarding `N#CC(C#N)=Cc1ccc(-c2ccc(O)c(-c3nc4ccccc4s3)c2)s1`, the absorption maximum is, setting by setting: (in ClCCl) 427 nm; (in O) 416 nm.

Molecule `Fc1nc(F)c(F)c(C#Cc2cc3c(cc2C#Cc2c(F)c(F)nc(F)c2F)OC2(CCCCC2)O3)c1F` gave an absorption maximum (in CC#N) of 360 nm.

Regarding `CN(C)c1ccc(/C=C/C=C2\CC/C(=C\c3ccc(N(C)C)cc3)C2=O)cc1`, the absorption maximum came to 479 nm (in C1CCOC1); 478 nm (in CC#N); 474 nm (in CC(C)=O); 493 nm (in CC(C)O); 435 nm (in CCCCCC); 499 nm (in CCCCO). The same molecule yielded an absorption maximum (in CCCCOC(C)=O) of 468 nm; an absorption maximum (in CCCO) of 499 nm; an absorption maximum (in CCO) of 498 nm; an absorption maximum (in CCOC(=O)c1ccccc1) of 481 nm; an absorption maximum (in CCOC(C)=O) of 464 nm; an absorption maximum (in CCOCC) of 448 nm. The absorption maximum runs as follows: (in CN(C)C=O) 486 nm; (in CO) 500 nm; (in CS(C)=O) 496 nm; (in Cc1ccccc1) 475 nm; (in ClC(Cl)(Cl)Cl) 449 nm; (in ClC(Cl)Cl) 486 nm. The absorption maximum reads like this: (in ClCCl) 484 nm; (in Clc1ccccc1Cl) 488 nm; (in S=C=S) 489 nm; (in c1ccccc1) 475 nm; (in c1ccncc1) 488 nm.

Under “in CCO”, `CN1c2cc3nc4cc(Cl)c(Cl)cc4nc3cc2N(C)C1(C)C` displayed an absorption maximum of 471 nm.

In the case of `COc1ccc2c3ccc(OC)cc3n(-c3ccc(-c4nnc(C)o4)cc3)c2c1`, for the setting “in Cc1ccccc1”, the absorption maximum was 319 nm.

Where the note is “in Cc1ccccc1”, `c1cc2c3c(c1)-c1ccc4c5c(ccc(c15)B3c1ccc3c5c(ccc-2c15)CC3)CC4` had an absorption maximum of 495 nm.

For the molecule `COc1ccc2c(C#N)cc3ccc4cc(C#N)c5ccc(OC)cc5c4c3c2c1`, the absorption maximum (in ClC(Cl)Cl) was determined as 422 nm.

In the case of `CCN(CC)c1ccc(/C=C2\CC/C(=C\c3ccc(N(c4ccccc4)c4ccc(/C=C5\CC/C(=C\c6ccc(N(CC)CC)cc6)C5=C(C#N)C#N)cc4)cc3)C2=C(C#N)C#N)cc1`, the absorption maximum (in CN(C)C=O) is reported as 592 nm.

Turning to `CCN(CC)c1ccc2c(-c3ccc(S(=O)(=O)O)cc3S(=O)(=O)[O-])c3ccc(=[N+](CC)CC)cc-3oc2c1`, the absorption maximum was determined as 551 nm (in CC#N), 556 nm (in CCO), 554 nm (in CN(C)C=O) and 554 nm (in O).

On to `N#CC(C#N)=C(/C=C/c1ccc(N(c2ccccc2)c2ccccc2)cc1)c1ccc2c3c(cccc13)CC2`, for which the absorption maximum came out at 485 nm (in C1CCOC1); 486 nm (in CC#N); 485 nm (in CC(C)=O); 482 nm (in CCOC(C)=O); 493 nm (in CN(C)C=O); 490 nm (in CO). Further, the absorption maximum (in Cc1ccccc1) was determined as 493 nm and the absorption maximum (in ClC(Cl)Cl) turned out to be 502 nm.

Regarding `c1ccc(/C(=C(\c2ccccc2)c2cc(-c3ccc(-c4ccccc4)cc3)ccc2-c2ccc(-c3ccccc3)cc2)c2cc(-c3ccc(-c4ccccc4)cc3)ccc2-c2ccc(-c3ccccc3)cc2)cc1`, the absorption maximum (in C1CCOC1) was 302 nm.

As to `F[B-]1(F)OC(c2ccccc2)=Cc2c3ccccc3cc[n+]21`, the absorption maximum (in ClC(Cl)Cl) is 400 nm.

Consider `CCC(CC)COC1=CC2=C3c4cc(OCC(CC)CC)c(-c5ccccc5)n4[B-](F)(F)[n+]4c3n(c3cc(C(C)(C)C)ccc34)[B-](F)(F)[N+]2=C1c1ccccc1`, for which the absorption maximum was 702 nm (in C1CCOC1), 694 nm (in CC#N) and 703 nm (in ClCCl).

With `COc1ccc(C2=C(Br)C(c3ccccc3)=[N+]3C2=Nc2c(-c4ccc(OC)cc4)c(Br)c(-c4ccccc4)n2[B-]3(F)F)cc1`, for the setting “in Cc1ccccc1”, the absorption maximum was determined as 654 nm.

For `CCN(CC)c1ccc([N+]2=Cc3ccc4c5c(ccc4c3O[B-]2(c2ccccc2)c2ccccc2)C=[N+](c2ccc([N+](=O)[O-])cc2)[B-](c2ccccc2)(c2ccccc2)O5)cc1`, the absorption maximum is, setting by setting: (in C1CCOC1) 547 nm; (in CC#N) 539 nm; (in CC(C)=O) 541 nm; (in Cc1ccccc1) 555 nm; (in ClCCl) 559 nm.

On to `COc1ccc(C2=CC(c3ccccc3)=[N+]3C2=Nc2c(-c4ccc(OC)cc4)cc(-c4ccccc4)n2[B-]3(F)F)cc1`, for which the absorption maximum was 663 nm (in Cc1ccccc1) and 664 nm (in ClC(Cl)Cl).

With `CCCCn1c2ccccc2c2ccc3c4cc(-c5ccc(C(F)(F)F)cc5)ccc4n(CCCC)c3c21`, the absorption maximum (in ClC(Cl)Cl) worked out at 326 nm.

With `CCOC(CN1C(=O)C2=C(c3ccsc3)N(CC(OCC)OCC)C(=O)C2=C1c1ccsc1)OCC`, where the note is “in ClC(Cl)Cl”, the absorption maximum was determined as 493 nm.

As for `CC1(C)C2=[N+](CCCCCC(=O)NCCNC(=O)CCCCCN3/C(=C/C=C/C=C/C=C/2)C(C)(C)c2cc(S(=O)(=O)[O-])ccc23)c2ccc(S(=O)(=O)[O-])cc21`, the absorption maximum runs as follows: (in CO) 755 nm; (in O) 750 nm.

Molecule `CCOC(=O)c1cc(C(=O)OCC)c2cc(N)ccc2n1` registered an absorption maximum (in CCO) of 421 nm.

In turn, `C(=C\c1cc(-c2ccc3ccccc3c2)c(/C=C/c2ccc(N(c3ccccc3)c3ccccc3)cc2)cc1-c1ccc2ccccc2c1)/c1ccc(N(c2ccccc2)c2ccccc2)cc1` showed an absorption maximum (in ClCCl) of 419 nm.

Regarding `CCN(CC)c1ccc(/N=N/c2nc3ccc([N+](=O)[O-])cc3s2)cc1`, the absorption maximum (in CC#N) was 546 nm and the absorption maximum (in ClCCl) is given as 549 nm.

The molecule `O=Cc1ccc(-c2ccc(C3=CCCCC3)s2)s1` displayed an absorption maximum (in C1CCOC1) of 385 nm; an absorption maximum (in CC#N) of 358 nm; an absorption maximum (in CCCCCC) of 381 nm; an absorption maximum (in CCO) of 389 nm; an absorption maximum (in OCCOCCO) of 389 nm; an absorption maximum (in c1ccncc1) of 392 nm.

`COc1ccccc1-c1nc2c3ccccc3c3ccccc3c2n1-c1ccc(C)cc1` gave an absorption maximum (in Cc1ccccc1) of 359 nm.

For the molecule `ClP1(Cl)=N[P@](Cl)(Oc2ccc3ccc4cccc5ccc2c3c45)=N[P@@](Cl)(Oc2ccc3ccc4cccc5ccc2c3c45)=N1`, the absorption maximum (in ClCCl) is given as 343 nm.

Take `COc1ccc(C2=[N+]3C(=Nc4c(-c5cc(OC)c(OC)c(OC)c5)cc(-c5ccc(OC)cc5)n4[B-]3(F)F)C(c3cc(OC)c(OC)c(OC)c3)=C2)cc1`: under “in Cc1ccccc1”, the absorption maximum was found to be 698 nm.

Take `c1ccc(-c2nc(-c3ccccc3)nc(-c3ccc(N4c5ccccc5C5(c6ccccc6-c6ccccc65)c5ccccc54)cc3)n2)cc1`: the absorption maximum (in Cc1ccccc1) was 399.05 nm.

Consider `C(=C\c1cc[n+]2ccc(/C=C/c3cc[nH]c3)cc2c1)/c1cc[nH]c1`, for which the absorption maximum (in CO) is 457 nm.

The molecule `C[Si](C)(C)c1ccc2ccc3c([Si](C)(C)C)ccc4ccc1c2c43` came in with an absorption maximum (in CCCCCC) of 350 nm, an absorption maximum (in CO) of 349 nm and an absorption maximum (in ClCCl) of 352 nm.

Regarding `COc1ccc(C(=O)/C=C/c2ccc(N(C)C)cc2)cc1OC`, the absorption maximum reads like this: (in C1CCOC1) 403 nm; (in CC#N) 412 nm; (in CC(=O)O) 426 nm; (in CC(C)=O) 408 nm; (in CCO) 419 nm; (in CN(C)C=O) 416 nm. Besides, the absorption maximum was found to be 421 nm (in CO), 404 nm (in Cc1ccccc1), 417 nm (in ClC(Cl)Cl) and 406 nm (in c1ccccc1).

`NC1=N/C(=N\c2ccccn2)c2cccc3cccc1c23` yielded an absorption maximum (in ClCCl) of 365 nm.

For the molecule `CN(C)c1ccc(C2=Cc3c4ccccc4c4ccccc4[n+]3[B-](F)(F)O2)cc1`, the absorption maximum was 478 nm (in C1CCOC1); 477 nm (in C1COCCO1); 474 nm (in CC1CCCCC1); 476 nm (in CC#N); 475 nm (in CCOC(C)=O); 472 nm (in CCOCC). Besides, the absorption maximum came out at 484 nm (in CN(C)C=O), 475 nm (in CO), 477 nm (in COC(C)=O) and 483 nm (in ClC(Cl)Cl).

Molecule `CN(C)c1ccc(/C=C/c2ccnc(/C=C/c3ccc(N(C)C)cc3)n2)cc1` returned an absorption maximum (in ClCCl) of 385 nm.

On to `Cc1cc(C)c2c(c1)nc1c(=O)n(C)c(=O)nc-1n2C`, for which the absorption maximum (in CC#N) worked out at 448 nm.

Regarding `O=Cc1ccc(-c2ccc(-c3nc4ccccc4s3)c(O)c2)o1`, the absorption maximum is listed as 373 nm (in ClCCl) and 326 nm (in O).
